The source of these data is US7517884B2 (Kalypsys Inc., priority 1998, dated 2009).

What all share (assay type): cell-based, murine and human
Common to all, as to conditions: GAL4-PPAR LBD chimera

One experiment deals with T1, PPAR-alpha (UniProt Q07869).
T1 sequence (Q07869 1-468): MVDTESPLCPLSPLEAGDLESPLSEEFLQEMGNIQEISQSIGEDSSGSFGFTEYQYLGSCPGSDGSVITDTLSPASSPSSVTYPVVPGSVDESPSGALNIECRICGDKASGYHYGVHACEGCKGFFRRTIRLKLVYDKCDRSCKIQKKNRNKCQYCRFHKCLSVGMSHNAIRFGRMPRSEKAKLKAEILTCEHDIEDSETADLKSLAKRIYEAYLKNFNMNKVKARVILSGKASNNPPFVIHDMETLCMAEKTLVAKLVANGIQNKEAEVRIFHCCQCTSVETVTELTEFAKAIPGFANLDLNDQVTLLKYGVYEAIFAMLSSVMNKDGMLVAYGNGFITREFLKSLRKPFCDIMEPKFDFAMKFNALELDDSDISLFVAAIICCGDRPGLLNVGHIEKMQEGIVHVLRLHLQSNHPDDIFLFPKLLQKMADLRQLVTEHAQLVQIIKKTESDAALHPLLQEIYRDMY
Description: PPAR-alpha transactivation assay (GAL4 chimera, luciferase reporter) in CV-1 cells. An excerpt:
(§1) Compounds may be screened for functional potency in transient transfection assays in CV-1 cells for their ability to activate the PPAR subtypes (transactivation assay). A previously established chimeric receptor system was utilized to allow comparison of the relative transcriptional activity of the receptor subtypes on the same synthetic response element and to prevent endogenous receptor activation from complicating the interpretation of results. See, for example, Lehmann, J. M.; Moore, L. B.; Smith-Oliver, T. A; Wilkinson, W. O.; Willson, T. M.; Kliewer, S. A., An antidiabetic thiazolidinedione is a high affinity ligand for peroxisome proliferator-activated receptor […], J. Biol. Chem., 1995, 270, 12953-6. The ligand binding domains for murine and human PPAR-alpha, PPAR-gamma, and PPAR-delta are each fused to the yeast transcription factor GAL4 DNA binding domain. CV-1 cells were transiently transfected with expression vectors for the respective PPAR chimera along with a reporter construct containing four or five copies of the GAL4 DNA binding site driving expression of luciferase. After 8-16 h, the cells are replated into multi-well assay plates and the media is exchanged to phenol-red free DME medium supplemented with 5% delipidated calf serum. 4 hours after replating, cells were treated with either compounds or 1% DMSO for 20-24 hours. Luciferase activity was then assayed with Britelite (Perkin Elmer) following the manufacturer's protocol and measured with either the Perkin Elmer Viewlux or Molecular Devices Acquest (see, for example, Kliewer, S. A., et. al. Cell 1995, 83, 813-819). Rosiglitazone is used as a positive control in the PPARγ assay. Wy-14643 and GW7647 are used as positive controls in the PPARα assay. GW501516 is used as the positive control in the PPARδ assay.
(§2) Compounds of Examples 1-141 were assayed to measure their biological activity with respect to their EC50 values for modulating PPAR-alpha, PPAR-gamma, and PPAR-delta as set forth in Table 1.
A general note: In a reporter assay the amount or activity of a reporter protein is the signal.

A further experiment deals with T2, PPAR-delta (UniProt Q03181).
T2 sequence (Q03181 1-441): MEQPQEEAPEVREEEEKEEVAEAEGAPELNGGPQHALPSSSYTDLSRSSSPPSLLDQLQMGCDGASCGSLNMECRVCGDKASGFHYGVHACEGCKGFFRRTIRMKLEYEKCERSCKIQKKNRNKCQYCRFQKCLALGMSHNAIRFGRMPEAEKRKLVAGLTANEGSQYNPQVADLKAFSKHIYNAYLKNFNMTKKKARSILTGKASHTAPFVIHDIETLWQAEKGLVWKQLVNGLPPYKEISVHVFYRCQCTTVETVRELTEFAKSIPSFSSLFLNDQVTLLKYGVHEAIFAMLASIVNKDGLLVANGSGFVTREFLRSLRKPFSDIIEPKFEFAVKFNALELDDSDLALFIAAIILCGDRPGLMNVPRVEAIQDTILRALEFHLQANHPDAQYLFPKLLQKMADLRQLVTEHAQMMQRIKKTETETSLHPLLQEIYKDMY
In words: PPAR-delta transactivation assay (GAL4 chimera, luciferase reporter) in CV-1 cells.
From the text: as §1, §2

In the next experiment the target is T3, PPAR-gamma (UniProt P37231).
T3 sequence (P37231 1-505): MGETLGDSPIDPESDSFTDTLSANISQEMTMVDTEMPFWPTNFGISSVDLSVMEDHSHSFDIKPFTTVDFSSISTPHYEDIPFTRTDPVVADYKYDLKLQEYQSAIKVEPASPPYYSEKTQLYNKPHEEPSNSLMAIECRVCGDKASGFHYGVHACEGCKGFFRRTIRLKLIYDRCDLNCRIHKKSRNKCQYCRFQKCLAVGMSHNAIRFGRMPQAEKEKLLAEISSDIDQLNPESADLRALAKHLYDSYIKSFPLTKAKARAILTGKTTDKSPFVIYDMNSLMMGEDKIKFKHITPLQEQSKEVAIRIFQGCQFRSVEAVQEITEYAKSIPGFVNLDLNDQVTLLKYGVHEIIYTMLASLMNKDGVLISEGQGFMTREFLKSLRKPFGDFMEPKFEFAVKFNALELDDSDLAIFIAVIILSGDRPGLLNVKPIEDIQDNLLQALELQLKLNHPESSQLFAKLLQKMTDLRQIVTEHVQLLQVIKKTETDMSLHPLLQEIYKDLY
Description: PPAR-gamma transactivation assay (GAL4 chimera, luciferase reporter) in CV-1 cells.
From the text: as §1, §2

By EC50 is commonly meant the concentration needed to bring the measured effect to its halfway point. Read a low EC50 as greater potency. Regarding `C[C@@H]1[C@H](C)N(c2ccc(C(F)(F)F)cn2)CCN1S(=O)(=O)c1ccc2scc(CC(=O)O)c2c1` (stereo in doubt) [Example 87, {5-[2,3-Dimethyl-4-(5-trifluoromethyl-pyridin-2-yl)-piperazine-1-sulfonyl]-benzo[b]thiophen-3-yl}-acetic acid], the EC50 at PPAR-alpha was 5 to 100 µM; on PPAR-delta, under 5 µM; at PPAR-gamma, under 5 µM.
Consider `O=C(O)CC1Cc2ccc(S(=O)(=O)N3CCN(c4ccc(C(F)(F)F)cc4)CC3)cc2C1` (stereo not drawn) [Example 1, {5-[4-(4-trifluoromethylphenyl)-piperazine-1-sulfonyl]-indan-2-yl}-acetic acid], for which the half-maximal effective concentration (EC50) at PPAR-alpha, at PPAR-delta and at PPAR-gamma was 5 to 100 µM throughout.
`O=C(O)CC1Cc2cccc(S(=O)(=O)N3CCN(c4ccc(C(F)(F)F)cc4)CC3)c2C1` (stereo not drawn) [Example 2, {4-[4-(4-trifluoromethyl-phenyl)-piperazine-1-sulfonyl]-indan-2-yl}-acetic acid]: the results for the EC50 on PPAR-alpha, at PPAR-delta and at PPAR-gamma were over 100 µM, under 5 µM and 5 to 100 µM, respectively.
With `O=C(O)CC1Cc2ccc(S(=O)(=O)N3CCN(c4ccc(Cl)c(Cl)c4)CC3)cc2C1` (stereo not drawn) [Example 3, {5-[4-(3,4-dichlorophenyl)-piperazine-1-sulfonyl]-indan-2-yl}-acetic acid], the half-maximal effective concentration (EC50) at PPAR-alpha, on PPAR-delta and at PPAR-gamma was 5 to 100 µM each time.
`O=C(O)CC1Cc2cccc(S(=O)(=O)N3CCN(c4ccc(Cl)c(Cl)c4)CC3)c2C1` (stereo not drawn) [Example 4, {4-[4-(3,4-dichlorophenyl)-piperazine-1-sulfonyl]-indan-2-yl}-acetic acid]: the EC50 on PPAR-alpha is over 100 µM; at PPAR-delta, 5 to 100 µM; at PPAR-gamma, over 100 µM.
Turning to `O=C(O)C1Cc2ccc(S(=O)(=O)N3CCN(c4ccc(C(F)(F)F)cc4)CC3)cc2C1` (stereo not drawn) [Example 5, 5-[4-(4-trifluoromethyl-phenyl)-piperazine-1-sulfonyl]-indan-2-carboxylic acid], the concentration for a half-maximal effect (EC50) on PPAR-alpha is 5 to 100 µM; at PPAR-delta, under 5 µM; on PPAR-gamma, 5 to 100 µM.
For `O=C(O)C1Cc2cccc(S(=O)(=O)N3CCN(c4ccc(C(F)(F)F)cc4)CC3)c2C1` (stereo not drawn) [Example 6, 4-[4-(4-trifluoromethyl-phenyl)-piperazine-1-sulfonyl]-indan-2-carboxylic acid], the 50% effective concentration (EC50) was over 100 µM on PPAR-alpha, under 5 µM at PPAR-delta and under 5 µM at PPAR-gamma.
On to `O=C(O)C1Cc2ccc(S(=O)(=O)N3CCN(c4ccc(Cl)c(Cl)c4)CC3)cc2C1` (stereo not drawn) [Example 7, 5-[4-(3,4-dichlorophenyl)-piperazine-1-sulfonyl]-indan-2-carboxylic acid], for which the 50% effective concentration (EC50) was 5 to 100 µM at PPAR-alpha, under 5 µM at PPAR-delta and 5 to 100 µM at PPAR-gamma.
Turning to `O=C(O)C1Cc2cccc(S(=O)(=O)N3CCN(c4ccc(Cl)c(Cl)c4)CC3)c2C1` (stereo not drawn) [Example 8, 4-[4-(3,4-dichlorophenyl)-piperazine-1-sulfonyl]-indan-2-carboxylic acid], the EC50 at PPAR-alpha is 5 to 100 µM; on PPAR-delta, under 5 µM; on PPAR-gamma it was under 5 µM.
As to `O=C(O)C1Cc2ccc(S(=O)(=O)N3CCN(c4ccc(C(F)(F)F)cn4)CC3)cc2C1` (stereo not drawn) [Example 9], the figures for the EC50 at PPAR-alpha, at PPAR-delta and on PPAR-gamma were 5 to 100 µM, under 5 µM and 5 to 100 µM, respectively.
For the molecule `CC1(C(=O)O)Cc2ccc(S(=O)(=O)N3CCN(c4ccc(C(F)(F)F)cn4)CC3)cc2C1` (stereo not drawn) [Example 13, 2-methyl-5-[4-(5-trifluoromethyl-pyridin-2-yl)-piperazine-1-sulfonyl]-indan-2-carboxylic acid], the results for the concentration giving a half-maximal response (EC50) at PPAR-alpha, on PPAR-delta and on PPAR-gamma were 5 to 100 µM, under 5 µM and 5 to 100 µM, respectively.
`CC1(C(=O)O)Cc2cccc(S(=O)(=O)N3CCN(c4ccc(C(F)(F)F)cn4)CC3)c2C1` (stereo not drawn) [Example 14, 2-methyl-4-[4-(5-trifluoromethyl-pyridin-2-yl)-piperazine-1-sulfonyl]-indan-2-carboxylic acid]: the EC50 at PPAR-alpha is over 100 µM; on PPAR-delta, 5 to 100 µM; at PPAR-gamma, 5 to 100 µM.
For `O=C(O)C1Cc2ccc(S(=O)(=O)N3CCN(c4cccc(C(F)(F)F)c4)CC3)cc2C1` (stereo not drawn) [Example 15, 5-[4-(3-trifluoromethyl-phenyl)-piperazine-1-sulfonyl]-indan-2-carboxylic acid], the EC50 at PPAR-alpha, on PPAR-delta and on PPAR-gamma was 5 to 100 µM in each case.
As to `O=C(O)C1Cc2cccc(S(=O)(=O)N3CCN(c4cccc(C(F)(F)F)c4)CC3)c2C1` (stereo not drawn) [Example 16, 4-[4-(3-trifluoromethyl-phenyl)-piperazine-1-sulfonyl]-indan-2-carboxylic acid], the figures for the EC50 at PPAR-alpha, at PPAR-delta and on PPAR-gamma were 5 to 100 µM, under 5 µM and 5 to 100 µM, respectively.
With `O=C(O)C1Cc2ccc(S(=O)(=O)N3CC=C(c4ccc(C(F)(F)F)cc4)CC3)cc2C1` (stereo not drawn) [Example 17, 5-[4-(4-trifluoromethyl-phenyl)-3,6-dihydro-2H-pyridine-1-sulfonyl]-indan-2-carboxylic acid], the EC50 at PPAR-alpha, on PPAR-delta and on PPAR-gamma was 5 to 100 µM throughout.
As for `O=C(O)C1Cc2cccc(S(=O)(=O)N3CC=C(c4ccc(C(F)(F)F)cc4)CC3)c2C1` (stereo not drawn) [Example 18, 4-[4-(4-trifluoromethyl-phenyl)-3,6-dihydro-2H-pyridine-1-sulfonyl]-indan-2-carboxylic acid], the half-maximal effective concentration (EC50) on PPAR-alpha was 5 to 100 µM; at PPAR-delta, under 5 µM; on PPAR-gamma, 5 to 100 µM.
Consider `O=C(O)C1CCc2ccc(S(=O)(=O)N3CCN(c4ccc(C(F)(F)F)cc4)CC3)cc21` (stereo not drawn) [Example 19, 6-[4-(4-trifluoromethyl-phenyl)-piperazine-1-sulfonyl]-indan-1-carboxylic acid], for which the EC50 on PPAR-alpha, on PPAR-delta and at PPAR-gamma was under 5 µM in each case.
Regarding `O=C(O)C1CCc2ccc(S(=O)(=O)N3CCN(c4ccc(C(F)(F)F)cn4)CC3)cc21` (stereo not drawn) [Example 20, 6-[4-(5-trifluoromethyl-pyridin-2-yl)-piperazine-1-sulfonyl]-indan-1-carboxylic acid], the concentration for a half-maximal effect (EC50) at PPAR-alpha, on PPAR-delta and at PPAR-gamma was under 5 µM each time.
For `O=C(O)C1CCc2ccc(S(=O)(=O)N3CCN(c4ccc5c(c4)OCO5)CC3)cc21` (stereo not drawn) [Example 21, 6-(4-Benzo[1,3]dioxol-5-yl-piperazine-1-sulfonyl)-indan-1-carboxylic acid], the EC50 on PPAR-alpha, at PPAR-delta and at PPAR-gamma was 5 to 100 µM throughout.
